The record followed here is PubChem BioAssay (NCI).

Each structure is given as a SMILES string.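 Results reflect a 48-hour exposure of cells in 96-well plates to compound at five concentrations. Abbreviation: GI50, concentration required for 50% inhibition of growth. TGI denotes the concentration required for complete inhibition of growth.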

Common to all, as to assay: NCI anticancer screen, dose series, 48 h
The subject of test [1] is SW-620 colon.
For test [2], the system named is ACHN renal.
Test [3] has as its system HOP-62 NSCLC.
Test [4] has as its system HS 578T breast.
Test [5] deals with RPMI-8226 leukemia.
In test [6] the test system is SNB-19 CNS.
Test [7] deals with MDA-MB-231 breast.
The subject of test [8] is MDA-MB-435.
Test [9] relates to OVCAR-5 ovarian.
The test system of test [10] is MALME-3M melanoma.
Test [11] has as its system M14 melanoma.
Test [12] has as its system NCI-H23 lung.
Test [13] relates to U251 CNS.
Test [14] relates to CCRF-CEM leukemia.
Test [15] has as its system RXF 393 renal.
Test [16] deals with HOP-92 NSCLC.

As to `COC(=O)/C=C/c1cnc2c(c1)oc(=O)n2CCc1ccccn1`, the TGI in [1], in test [2], in test [3], in test [4], in test [5] and in test [6] was more than 100 µM throughout. Further, the TGI was more than 100 µM in [7]; 89 µM in test [8]; more than 100 µM in test [9]; more than 100 µM in test [10]; more than 100 µM in test [11]; more than 100 µM in test [12]. Further, the TGI is more than 100 µM in test [13] and 69 µM in [14].
`CCSc1c(C)c2c(n(Cc3ccc(OC)cc3)c1=O)Cc1ccccc1C2`: the TGI in [1] was 84 µM; in test [2], 84.2 µM; in test [3], more than 100 µM; in [4] it was more than 100 µM; in test [6] it was more than 100 µM; in test [15], more than 100 µM. Also, the TGI was 94.7 µM in test [7]; more than 100 µM in [8]; more than 100 µM in test [9]; 45.7 µM in test [10]; 27.3 µM in test [11]; more than 100 µM in [12]. The TGI is 82.4 µM in test [13] and more than 100 µM in [14].
Regarding `C=C(C)[C@@H]1C[C@H]2O[C@](O)(C(=C)CC(=O)/C=C(/C)C[C@@H]3OC(=O)[C@]24O[C@@H]34)[C@H]1O`, the TGI in test [1], in test [2], in test [3], in test [5], in test [6] and in [15] was more than 100 µM throughout. Moreover, the TGI in test [7], in test [8], in test [9], in test [10], in test [11] and in test [12] was more than 100 µM in each case. The TGI in test [13] and in test [14] was more than 100 µM each time.
As for `C[C@@]12c3c4ccc(C=O)c3Oc3ccc(C=O)c(c31)Oc1c(C=O)ccc(c12)O4`, the TGI in test [1], in [2], in test [3], in test [16], in [4] and in test [5] was more than 100 µM each time. Also, the TGI in test [6], in [7], in [8], in test [9], in test [10] and in test [11] was more than 100 µM each time. In addition, the TGI in [12] and in test [13] was more than 100 µM each time.
Consider `CCC(C)C(C(=O)N/N=C1/SCC(=O)N1C)C(=O)N/N=C1/SCC(=O)N1C` (configuration not stated), for which the TGI in test [1], in test [2], in [3], in test [16], in test [4] and in [5] was more than 100 µM in each case. Also, the TGI in test [6], in test [15], in test [7], in test [8], in test [9] and in test [10] was more than 100 µM each time. The TGI in [11], in test [12] and in [13] was more than 100 µM each time.
On to `CC1(C)OCC2(CO1)CSCCCSCC1(COC(C)(C)OC1)CSCCCSC2`, for which the TGI in test [1], in test [3], in test [16], in test [5], in test [6] and in [7] was more than 100 µM throughout. Further, the TGI in test [8], in [9], in test [11], in test [12], in test [13] and in [14] was more than 100 µM in each case.
With `O=C1CSC(/C=C/c2ccccc2)N1c1ccc(-c2ccc(-n3c(-c4ccccc4)nc4ccccc4c3=O)cc2)cc1` (configuration not stated), the TGI in test [1] is 65.1 µM; in test [2] it was 94.9 µM; in test [3], 99.2 µM; in test [16], 56.2 µM; in test [5], more than 100 µM; in [6] it was 62.3 µM. Besides, the TGI in [7] is more than 100 µM; in test [8] it was 49.3 µM; in test [9], 41.6 µM; in [10], 64.4 µM; in test [11], 35.4 µM; in [12] it was more than 100 µM. Further, the TGI in [13] worked out at 88.5 µM; in test [14], 64.5 µM.
As for `CN(C)/C(N)=N/C(N)=Nc1cccc(Cl)c1`, the TGI in test [1], in test [2], in [3], in test [4], in test [5] and in test [6] was more than 100 µM each time. For the same molecule, the TGI in test [7], in test [8], in [9], in [10], in [11] and in [12] was more than 100 µM in each case. In test [13], this molecule displayed a TGI of more than 100 µM.
Regarding `O=C(O)c1nc2cc(C(F)(F)F)ccc2nc1Nc1ccc(Cl)c(Cl)c1`, the TGI in test [1] was 22.7 µM; in test [2], 36 µM; in test [3], 27.6 µM; in test [16], 23.1 µM; in test [4] it was 37.8 µM; in test [5] it was 59 µM. In addition, the TGI in [6] was found to be 53.5 µM; in [15], 37.5 µM; in [7], 48.8 µM; in [8] it was 18.6 µM; in test [9], 32 µM; in [10], 38.7 µM. The TGI came out at 26 µM in [11], 31.7 µM in test [12] and 33.6 µM in test [13].
In the case of `CCOC(=O)[C@@H]1C[C@H]1c1ccc(O)c(O)c1`, the TGI in [1], in [2], in test [3], in test [16], in test [4] and in [5] was more than 100 µM each time. The TGI in test [6] is more than 100 µM; in test [15], 87.4 µM; in test [7], 63.1 µM; in test [8] it was more than 100 µM; in test [9], more than 100 µM; in [10] it was more than 100 µM. In addition, the TGI in test [11] was 73.6 µM; in test [12], more than 100 µM; in test [13], more than 100 µM.
Consider `FC(F)(F)c1nc2ccc(SSc3ccc4nc(C(F)(F)F)[nH]c4c3)cc2[nH]1`, for which the TGI is more than 100 µM in [1]; more than 100 µM in [2]; more than 100 µM in test [3]; more than 100 µM in [16]; more than 100 µM in [4]; 65 µM in [5]. Moreover, the TGI was more than 100 µM in test [6]; more than 100 µM in test [15]; 71.3 µM in test [7]; more than 100 µM in test [8]; more than 100 µM in [9]; more than 100 µM in test [11]. The TGI in [12] and in test [13] was more than 100 µM in each case. In addition, the GI50 in [16], in [4], in test [6] and in test [15] was more than 100 µM throughout.
`COC(=O)c1ccc(Oc2nc3ccccc3nc2-c2cccs2)cc1`: the TGI is more than 100 µM in [1]; more than 100 µM in [2]; 24.9 µM in [3]; 63.3 µM in [4]; 86.1 µM in test [6]; more than 100 µM in [15]. Moreover, the TGI is 57.8 µM in test [7]; more than 100 µM in test [8]; more than 100 µM in [9]; more than 100 µM in [10]; more than 100 µM in [11]; 74.5 µM in test [12]. In test [14], this molecule came in with a TGI of more than 100 µM.
As for `CN1CCC(CNC(=O)CCCCCCCCC(=O)NCC2(c3ccccc3)CCN(C)CC2)(c2ccccc2)CC1`, the TGI in [1], in [2], in test [3], in test [4], in test [5] and in [6] was more than 100 µM in each case. The TGI in test [15], in test [7], in [8], in test [9], in test [10] and in [11] was more than 100 µM throughout. In addition, the TGI in test [13] and in test [14] was more than 100 µM each time.
Take `O=C(O)CN=C(C(=NCC(=O)O)c1ccccc1)c1ccccc1`: the TGI in [1], in [2], in test [3], in test [4], in [5] and in test [6] was more than 100 µM throughout. Besides, the TGI in [15], in test [7], in test [8], in [9], in test [10] and in test [11] was more than 100 µM each time. The TGI in [12] and in test [13] was more than 100 µM throughout.
Take `CC(NC(=O)C(OC(=O)C(C)NC(=O)OC(C)(C)C)C(C)C)C(=O)OC(C(=O)O)C(C)C` (configuration not stated): the TGI in test [1], in test [2], in test [3], in test [16], in [4] and in test [5] was more than 100 µM each time. The TGI in [6], in [15], in test [7], in [8], in test [9] and in test [10] was more than 100 µM throughout. Also, the TGI in test [11] and in test [13] was more than 100 µM in each case.
With `Cc1cccc(-n2c(C)nc3ccc(NC4OC(CO)C(O)C(O)C4O)cc3c2=O)c1` (configuration not stated), the TGI in test [1], in test [2], in [3], in test [4], in test [5] and in [6] was more than 100 µM each time. Besides, the TGI in [15], in test [7], in test [8], in [9], in test [10] and in test [12] was more than 100 µM in each case. The molecule further displayed a TGI in test [13] of more than 100 µM.
Regarding `CCC[C@H](O)[C@@H](CNc1cc(NC(C)=O)nc(NC(C)=O)n1)N(Cc1ccccc1)Cc1ccccc1`, the TGI is more than 100 µM in test [1]; 56.8 µM in test [2]; 36.2 µM in [3]; more than 100 µM in [16]; more than 100 µM in test [4]; more than 100 µM in test [5]. The TGI in [6], in test [7], in [8], in test [9], in [10] and in test [11] was more than 100 µM each time. For the same molecule, the TGI is 58.4 µM in test [12] and more than 100 µM in test [13].
For the molecule `COc1ccc(-c2cc(-c3ccc(Cl)cc3)n(C3OC(CO)C(O)C(O)C3O)c(=S)c2C#N)cc1` (configuration not stated), the TGI in test [1], in test [2], in [3], in test [16], in [4] and in [5] was more than 100 µM each time. For the same molecule, the TGI is more than 100 µM in test [6]; more than 100 µM in test [7]; more than 100 µM in test [8]; 82.2 µM in test [9]; 89.7 µM in [11]; more than 100 µM in test [13].
With `Clc1cc(OCc2nn3c(Cc4ccccc4)nnc3s2)ccc1OCc1nn2c(Cc3ccccc3)nnc2s1`, the TGI in test [1] is more than 100 µM; in [2] it was more than 100 µM; in test [3], more than 100 µM; in [16], 46.5 µM; in [4], more than 100 µM; in test [5], more than 100 µM. For the same molecule, the TGI in [6] is 82.7 µM; in test [15], more than 100 µM; in [7] it was 66.8 µM; in test [8] it was more than 100 µM; in test [9] it was more than 100 µM; in [10] it was more than 100 µM. Besides, the TGI in [11] is more than 100 µM; in [12], more than 100 µM; in [13], 51.5 µM.
